“Also recorded” adds a separate entry of the source. Residues, ends and D or L forms follow the SMILES beside them.
Tests used:
[1] = tested on: bovine aortic endothelial cells (BAEC); assay: Microfilament and cell surface area measurement in cultured endothelial cells (rhodamine-phalloidin fluorescence microscopy); assay type: cell-based
Source text: Bovine abdominal aortas were clamped and tied in-situ and dissected free of the supporting adventitia. Aortas were transported from the abbatoir on ice. Endothelial cells were harvested by gentle ablation of the endothelium following the technique of Shepro et al. [Anat. Rec. 178:523 (1974)]; digested with 0.1% collagenase; and then pelleted and seeded onto 100 mm diameter tissue culture dishes using conventional techniques. The cell medium consisted of DULBECCO'S MODIFIED EAGLES'S MEDIUM medium (hereinafter "DME") at pH 7.4 supplemented with 10% fetal calf serum (hereinafter "FCS"), 0.1% of penicillin, 0.7% streptomycin, 0.1% amphotericin, and 0.1% glutamine. The cell media was replaced every 3 days. The cells were incubated at 37° C. in a 10% carbon dioxide, 90% ambient atmosphere (100% humidified).
This amount of confluency permits excellent visualization of cell spreading and stressed fibers. Individual confluent layers of cells were then treated with 1 uM Phallin A for 30 minutes duration; then fixed in 3.7% phosphate-buffered formaldehyde (pH 7.4) for 15 minutes. The cells on each coverslip were then permeabilized in extraction buffer (composed of 0.5M KCl, 1% triton X-100, 10 mM MgCl2, and 1 mg/ml tosyl-arginine methyl ester (hereinafter "TAME"); 17 ug/ml toluene-sulfonyl fluoride (hereinafter "TSF"); and 0.25 mg/ml DNAse 1 in PBS for a period of 10 minutes. Subsequently, this extraction buffer was removed and the cells washed three times in sequence with PBS. The cells were then stained with Rhodamine-phalloidin (an F-active specific fluorescent probe, Molecular Probes, Inc., Junction City, Oreg.) at 1 unit/200 ul per coverslip for 39 minutes duration. Subsequently, the coverslips were washed five times consecutively in PBS; mounted in a 1:1 ratio mixture of PBS/glycerol; and sealed. The cultured cells on each coverslip were illuminated for fluorescence microscopy. […] For comparative purposes, 1.0 uM of phalloidin (also known as Phallin B) or a mixture of Phallin A and Phhallin B, and PBS alone as the control was similarly evaluated. […] Clearly, the use of Phallin A at concentrations of 10^-6 to 10^-7 M is non-toxic to the cultured endothelial cells.

[2] = cited from earlier work
[3] = tested on: bovine aortic endothelial cells (BAEC); assay: Permeability assay: TBA (trypan blue-albumin) uptake by BAEC-covered microcarrier beads; assay type: cell-based; conditions: 1 uM, 30 minutes, versus untreated controls and mixture of phalloidin and Phallin A, FIG. 2
Protocol: Bovine aortic endothelial cells (BAEC) were prepared, cultured, and harvested as described within Experiment 1. Subsequently, BAEC were subcultured a maximum of three times before seeding onto CYTODEX 3 microcarrier beads (Pharmacia, Inc. ) . Microcarrier beads were suspended in cell media at a concentration of 40,000 microcarriers per milliliter. Beads were suspended by stirring, using a magnetic stirrer. BAEC were seeded onto the beads at the minimum density of 15 cells per bead and allowed to reach confluency. Subsequently, BAEC covered beads were allowed to incubate for 6 days post-confluency to obtain near maximum barrier function of the cell monolayers on the beads. After this incubation period, the BAEC covered beads were ready for use within permeability experiments. […]
BAEC barrier function was measured by TBA uptake per bead; therefore, it is necessary to standardize the number of beads per milliliter. […] Standard curves for absorbance as a function of bead concentration provides a linear relationship as a basis for comparison and extrapolation. […]
BAEC barrier function was then assessed in the following manner: 3.0 ml of BAEC-covered microcarrier beads at a density of 40,000 beads per milliliter were aliquotted into a 4.5 ml test vial in duplicate. […]
This assay procedure uses colorimetry to measure TBA dye absorbance by the beads. […]

[4] = tested on: endothelial actin cytoskeleton; conditions: cited from earlier work
endothelial cell = conditions: physiological titers and concentrations; cited from earlier work
endothelial cells = conditions: cited from earlier work

CC(C)[C@@H]1NC(=O)[C@H](Cc2ccccc2)NC(=O)[C@H](Cc2ccccc2)NC(=O)[C@@H]2CCCN2C(=O)[C@@H]2CCCN2C(=O)[C@H](Cc2ccccc2)NC(=O)[C@H](Cc2ccccc2)NC(=O)[C@H](C)NC(=O)[C@@H]2CCCN2C(=O)[C@@H]2CCCN2C1=O [Phallin A, antamanide] (cyclo(AFFPPFFVPP))
cell surface area and cell perimeter ([1]; BAEC at 50% confluency, 1 uM, 30 minutes): increased surface area and cell perimeter | cell proliferation ([1]; BAEC, 1.0 uM, FIG. 1): do not alter in proliferation | ratio of cell perimeter to cell area (roundness) ([1]; BAEC, 1.0 uM, FIG. 1): diminishes | cell shape (flattening and border extension) ([1]; BAEC, 1.0 uM, FIG. 1, comparable to other agents and controls): substantial flattening and border extension | toxicity to cultured endothelial cells ([1]; concentrations of 10^-6 to 10^-7 M): non-toxic | protection of the liver ([2]; administered in therapeutic doses): protecting the liver completely | annulling toxic effects of fatal doses of phalloidin ([2]; in vivo): capable of annulling the toxic effects of fetal doses of phalloidin; also recorded: capable at very low dosage of counteracting the effects of an absolutely fatal dose of phalloidin | endothelial cell barrier function / resistance to permeability (TBA uptake) [3]: markedly increases cell barrier function

C=C1[C@@H](C)[C@H]2[C@H](Cc3ccccc3)NC(=O)[C@]23OC(=O)/C=C/[C@H](O)CCC[C@@H](C)C/C=C/[C@H]3[C@@H]1O [cytochalasin B]
permeability for plasma proteins after disruption of endothelial actin cytoskeleton [4]: increase in permeability for plasma proteins

NCCc1c[nH]cn1 [histamine]
endothelial cell movement (endothelial cell): inhibit endothelial cell movement | stress fibers within endothelial cells (endothelial cells): produces stress fiber disassembly

NC[C@H](O)c1ccc(O)c(O)c1 [norepinephrine]
endothelial cell movement (endothelial cell): inhibit endothelial cell movement | stress fibers within endothelial cells (endothelial cells): stimulate the assembly of stress fibers

NCCc1c[nH]c2ccc(O)cc12 [serotonin]
endothelial cell movement (endothelial cell): inhibit endothelial cell movement | stress fibers within endothelial cells (endothelial cells): stimulate the assembly of stress fibers

Source: patent US5466667A, “Prophylactic and therapeutic methods for treating edema with antamanides” (priority 1993, dated 1995)
